According to patent publication US6897209B2, “Labelled factor XIIIa substrates” (GE Healthcare Limited, priority 1997, dated 2005):

Tests used:
[1] = tested on: human plasma clots; assay: Incorporation into human plasma clots (in vitro plasma clot assay); assay type: biochemical; conditions: control vials without thrombin and calcium chloride, 60 minutes
Procedure: (§1) Incorporation of radiolabelled substrates into fibrin was investigated by induction of an in vitro human plasma clot in the following manner. To a siliconised 5 ml glass vial was added, (a) 800 μl of Tris(hydroxymethyl)aminomethane buffered saline pH 7.5 containing calcium chloride (50 mM Tris, 150 mM sodium chloride, 4 mM calcium chloride.), (b) 40 μl of physiological salt solution containing 100 units of thrombin per ml, (c) 400 μl of human plasma containing the radiolabelled substrate at a concentration of typically 10 kBq/ml. To aid induction of clot a roughened glass rod was added to the reaction vial. Control vials were prepared similarly but with the omission of thrombin and calcium chloride.
(§2) The proportion of total radioactivity was calculated by counting in suitable detection apparatus.
(§3) The fraction of radioactivity retained on the filter, after subtraction of the non-specific binding determined from the control, is a measure of incorporation into the filtered clots.

[2] = target: T1, human plasma clots (Homo sapiens, UniProt P00488); assay: as above; assay type: biochemical
T1 construct: Factor XIII is transformed into its active form Factor XIIIa by thrombin in the presence of calcium ions; from tissue; host or cells: human plasma, clotted in vitro with thrombin and calcium chloride
T1 sequence (P00488 39-732): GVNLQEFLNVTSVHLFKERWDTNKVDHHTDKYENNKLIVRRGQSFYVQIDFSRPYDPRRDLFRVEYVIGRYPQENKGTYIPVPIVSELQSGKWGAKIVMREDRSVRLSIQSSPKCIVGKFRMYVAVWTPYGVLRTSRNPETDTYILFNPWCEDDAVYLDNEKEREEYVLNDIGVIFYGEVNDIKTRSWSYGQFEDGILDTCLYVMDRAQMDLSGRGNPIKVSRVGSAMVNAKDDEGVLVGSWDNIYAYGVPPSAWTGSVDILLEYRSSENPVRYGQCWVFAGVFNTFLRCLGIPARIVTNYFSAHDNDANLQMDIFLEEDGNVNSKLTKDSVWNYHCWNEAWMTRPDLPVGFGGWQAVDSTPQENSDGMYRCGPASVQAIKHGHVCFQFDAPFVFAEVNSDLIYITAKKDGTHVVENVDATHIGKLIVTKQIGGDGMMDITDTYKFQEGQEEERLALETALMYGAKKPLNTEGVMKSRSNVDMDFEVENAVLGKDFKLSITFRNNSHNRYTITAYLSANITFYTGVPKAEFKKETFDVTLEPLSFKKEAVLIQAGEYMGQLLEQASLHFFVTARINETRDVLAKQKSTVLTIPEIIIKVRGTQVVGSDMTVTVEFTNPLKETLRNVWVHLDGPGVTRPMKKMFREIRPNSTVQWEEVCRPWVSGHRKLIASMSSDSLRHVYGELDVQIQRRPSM
Procedure: as §1, §2, §3

[3] = Normal rat biodistribution; assay type: in vivo; conditions: i.v., male Wistar rats, Mean±SD n=3
Procedure: The resolution of a clot image is dependant on the combination of rate of incorporation of the radiopharmaceutical and its blood/tissues clearance rate. For this reason the biodistribution of several compounds has been determined in rats. Male Wistar (100-150 g) rats were injected i.v. with 0.1-0.2 ml of radiolabelled tracer solution (8 MBq/ml) and dissected at different times post-injection. The % ID in each of the selected tissues was measured. Some animals were kept in metabolism cages to be able to determine the % ID excreted in urine and faeces. The dissection times used for the majority of the agents was 2, 15, 30, 60, 240 min. Data are shown as % ID, Mean±SD, (n=3).

[4] = tested on: clots induced in rat inferior vena cava; assay: Incorporation into clots induced in a rat model (rat inferior vena cava model); assay type: in vivo; conditions: rat IVC model
Procedure: The rats (Male Wistar, 250-350 g) were anaesthetised with 15% urethane. After laparotomy, the vena cava was isolated and freed of surrounding fat tissue. […] The average weight of the clots formed in this model was around 27 mg, n=32, (5-50 mg range). The so compounds were injected 5 min post-induction. After 60 min the animals were sacrificed and the clot removed, weighed and counted. Other tissues e.g. blood, lung, heart, were also dissected and counted. The uptake of tracer into the clot was determined as the relative concentration (cpm/g of clot by dose/g animal ) and clot to background tissue.

[5] = target: T2, Factor XIIIa (Homo sapiens, UniProt P00488); assay: Factor XIIIa dependency of incorporation (dimethylcasein uptake, normal vs Factor XIII deficient plasma); assay type: biochemical; conditions: 1 KBq/ml, 60 minutes; uptake in normal plasma minus Factor XIII deficient plasma
T2 construct: Factor XIII is transformed into its active form Factor XIIIa by thrombin in the presence of calcium ions; from tissue; host or cells: human plasma
T2 sequence (P00488 39-732 limits assumed): T1 sequence (P00488 39-732)
Procedure: The assay was changed by replacing the mercaptoethanol with aprotinin at a final concentration of 2 μg/ml, and dimethylcasein (DMC) was used instead of casein.

[6] = compound injected 5 min post-induction, clot removed after 60 min

% specific uptake* ([2]; % retained with thrombin − % retained no thrombin): 2.6%
% retained in plasma clot assay (with thrombin) ([2]; human plasma with thrombin and calcium chloride, 60 minutes, ca. 20° C.): 3%
% ID Blood ([3]; 2 min post-injection): 10.33 ± 1.2 % ID
% ID GI Tract ([3]; 2 min post-injection): 13.6 ± 0.8 % ID
% ID Heart ([3]; 2 min post-injection): 0.33 + 0.06 % ID
% ID Kidney ([3]; 2 min post-injection): 8.34 ± 2.7 % ID
% ID Liver ([3]; 2 min post-injection): 19.9 ± 0.87 % ID
% ID Lung ([3]; 2 min post-injection): 1.08 ± 0.15 % ID
% ID Muscle ([3]; 2 min post-injection): 22.6 ± 0.8 % ID
% ID Urine ([3]; 2 min post-injection): 2.44 ± 1.68 % ID
% ID Blood ([3]; 30 min post-injection): 0.98 ± 0.18 % ID
% ID GI Tract ([3]; 30 min post-injection): 62.7 ± 2.7 % ID
% ID Heart ([3]; 30 min post-injection): 0.04 + 0.02 % ID
% ID Kidney ([3]; 30 min post-injection): 2.39 ± 0.81 % ID
% ID Liver ([3]; 30 min post-injection): 5.06 ± 0.89 % ID
% ID Lung ([3]; 30 min post-injection): 0.16 % ID
% ID Muscle ([3]; 30 min post-injection): 5.27 ± 0.4 % ID
% ID Urine ([3]; 30 min post-injection): 19.49 ± 1.96 % ID
% ID Blood ([3]; 60 min post-injection): 0.43 ± 0.07 % ID
% ID GI Tract ([3]; 60 min post-injection): 68.6 ± 0.4 % ID
% ID Heart ([3]; 60 min post-injection): 0.02 + 0.02 % ID
% ID Kidney ([3]; 60 min post-injection): 1.49 ± 0.04 % ID
% ID Liver ([3]; 60 min post-injection): 5.3 ± 0.9 % ID
% ID Lung ([3]; 60 min post-injection): 0.1 ± 0.04 % ID
% ID Muscle ([3]; 60 min post-injection): 2.26 ± 0.05 % ID
% ID Urine ([3]; 60 min post-injection): 18.81 ± 0.85 % ID
% ID Blood ([3]; 240 min post-injection): 0.21 ± 0.08 % ID
% ID GI Tract ([3]; 240 min post-injection): 70.1 ± 1.9 % ID
% ID Heart ([3]; 240 min post-injection): 0.01 + 0.04 % ID
% ID Kidney ([3]; 240 min post-injection): 1.51 ± 0.02 % ID
% ID Liver ([3]; 240 min post-injection): 3.81 ± 0.92 % ID
% ID Lung ([3]; 240 min post-injection): 0.06 ± 0.01 % ID
% ID Muscle ([3]; 240 min post-injection): 1.94 ± 0.35 % ID
% ID Urine ([3]; 240 min post-injection): 19.88 ± 3.03 % ID
% specific DMC casein uptake [5]: 2%
SMILES: CC(=NO)C(C)(C)NCC(C)(CNC(=O)CCCCCN)CNC(C)(C)C(C)=NO (stereo not drawn) [Compound 4, 3,3,6,9,9-pentamethyl-6-N-(6aminohexoyl)aminomethyl-4,8-diazaundecane-2,10-dione dioxime]
% retained in plasma clot assay (no thrombin) [1]: 0.4%
Clot/Blood ([4]; 60 min): 2.3
Clot/Heart ([4]; 60 min): 4.0
Clot/Liver ([4]; 60 min): 0.27
Clot/Lung ([4]; 60 min): 2.7
% ID/g (clot uptake) [4, 6]: 0.18 ± 0.06 % ID/g
Relative conc (cpm/g of clot by dose/g animal) [4, 6]: 0.52 ± 0.2
